Measurements published in patent publication US20100069304A1, “PROTECTIVE EFFECTS OF INHIBITING THE INTERACTION OF CALMODULIN AND MUTANT HUNTINGTIN PROTEIN” (priority 2008, published 2010).
“Also recorded” adds a separate entry of the source. Each block holds one compound with its values, some of them ahead of it.

Tests used:
[1] = system: TGase; experiment: TGase activity in mouse striatal homogenates; type: in vivo; conditions: 500 μM GTPγS, all mouse groups
Protocol: TGase II Activity Assay. TGase activity was measured by detecting the incorporation of a biotinylated TGase amine substrate, 5-(biotinamido)pentylamine (Pierce, Rockford, Ill.) into N,N'-dimethylcasein (Calbiochem, San Diego, Calif.) as previously described (Dudek et al., 2009). 96-well Immulon 4 HBX plates (Dynatech, Franklin, Mass.) were coated with 100 μl of N,N′-dimethylcasein (20 mg/ml) in 0.05M sodium bicarbonate, and stored at 4° C. overnight. After the unbound N,N′-dimethylcasein was discarded, the plate was washed with PBS and blocked with nonfat dry milk (2% milk in PBS) for 1 hour at 37° C., followed by 3 washes with PBS. Striatum from the various mice were homogenized in 0.1 M Tris-HCl pH 8.3, 1 mM EDTA, 1 mM PMSF, and protease inhibitor cocktail. Striatal homogenates (15 μg of protein/sample) were added to the plate with 0.1 M Tris-HCl pH 8.5, 0.15 M NaCl, 5 mM DTT, 0.5 mM biotin-labeled pentylamine, and 5 mM CaCl2. The mixture was incubated for 1 hour at 37° C. The plate was washed with TBS and 0.001% Tween followed by incubation with streptavidin conjugated to HRP (Jackson ImmunoResearch, West Grove, Pa.) for 1 hour at room temperature. […] Then the reaction was stopped with 3N sulfuric acid and the absorbance was read at 450 nm. […] Each sample was measured in triplicate.

[2] = target: T1, htt-exon1-44Q binding to CaM (Homo sapiens, UniProt P42858, INS38QQQQQQQQQQQQQQQQQQQQQQQ); experiment: In vitro mutant huntingtin-calmodulin binding (calmodulin-agarose)
T1 construct: encoding exon 1 of huntingtin with 44 glutamine residues; MBP; host or cells: Escherichia coli

[3] = system: HD transgenic mice; conditions: cited from earlier work
[4] = system: cells expressing mutant huntingtin and TG; conditions: cited from earlier work
[5] = target: T2, mutant huntingtin (htt-N63-148Q) (Homo sapiens, UniProt P42858, INS26QQQQQQQQQQ/INS27QQQQQQQQQQ/INS28QQQQQQQQQQ/INS29QQQQQQQQQQ/INS30QQQQQQQQQQ/INS31QQQQQQQQQQ/INS32QQQQQQQQQQ/INS33QQQQQQQQQQ/INS34QQQQQQQQQQ/INS35QQQQQQQQQQ/INS36QQQQQQQQQQ/INS37QQQQQQQQQQ/INS38QQQQQQQ); experiment: TG-modified huntingtin (81D4 immunoprecipitation and immunoblot) in transfected HEK-293T cells; type: cell-based; conditions: HEK-293T cells with htt-N63-148Q, TG2 and CaM construct vs vector control
T2 construct: myc; expressed in transfected cells; host or cells: HEK-293T
Protocol: HEK-293T cells were grown in OptiMEM reduced serum medium (Invitrogen, Carlsbad, Calif.) containing nonessential amino acids, antimycotic and antibiotic agents, and 10% FBS, in the presence of 5% CO2 at 37° C. Cells were grown to 80-90% confluency and transfected using Lipofectamine Plus (Invitrogen, Carlsbald, Calif.). […] Forty-eight hours after transfection, cells were harvested and resuspened in lysis buffer containing 50 mM Tris-HCl, pH 8.8, 100 mM NaCl, 5 mM MgCl2, 0.05% NP-40, 1 mM EDTA (Tang T S, Tu H, Chan E Y, et al. Huntingtin and huntingtin-associated protein 1 influence neuronal calcium signaling mediated by inositol-(1,4,5)triphosphate receptor type 1. Neuron 2003;39:227-239) and 1:1,000 protease inhibitor mixture (Sigma, St. Louis, Mo.). […]
Immunoblots. […] Signal was detected using enhanced chemiluminescence (ECL) Western blotting detection reagents (Amersham Biosciences, Piscataway, N.J.). Immunoblots were quantified by calculating the sum of the densities of all of the pixels within each protein band as the integrated optical density (IOD), using Scion Image for Windows (Scion, Frederick, Md.). Film background IOD was measured and subtracted from each band IOD. Measurements were done in triplicate and the mean was calculated.

[6] = system: transglutaminase; experiment: In situ transglutaminase assay in intact cells; type: cell-based, human; conditions: SHSY5Y-htt-N63-148Q cells
Protocol: In situ transglutaminase assay. In this in situ assay, transglutaminase activity is measured in intact cells via incorporation of a polyamine and the presence of the transglutaminase-catalyzed bond. Forty-two hours post viral infection, cells were treated with 2 mM 5-(biotinamido)pentylamine, a biotinylated polyamine (Pierce, Rockford, Ill.), and 6 hours post polyamine treatment, cells were harvested and lysed in 0.1 M Tris-HCl pH 8.3, 1 mM EDTA, 1 mM PMSF, and protease inhibitor cocktail. 96-well Immulon 4 HBX plates (Dynatech, Franklin, Mass.) were coated with anti-ε-(γ-glutamyl)lysine (81D4) antibody (CovalAb, Lyon, France) in 0.1 M Na2HPO4.7 H2O pH 9 overnight at 4° C. Then the plates were washed with PBS and blocked with 2% milk in PBS for 1 hour at room temperature, followed by 3 washes with PBS with 0.0375% Tween. Cell lysates (50 μg of protein/sample/well) were added to the wells in triplicates and incubated for 1 hour at 37° C. The plate was washed with PBS and 0.0375% Tween, followed by incubation with streptavidin conjugated to HRP (Jackson ImmunoResearch, West Grove, Pa.) for 1 hour at room temperature. After final washes, a 1×TMB substrate solution (eBioscience, SanDiego, Calif.) was added and color was allowed to develop for 5-10 minutes. The reaction was stopped with 3 N sulfuric acid and the absorbance was read at 450 nm.

T1 sequence (P42858 with tags, fused parts or gaps with the stated changes limits assumed): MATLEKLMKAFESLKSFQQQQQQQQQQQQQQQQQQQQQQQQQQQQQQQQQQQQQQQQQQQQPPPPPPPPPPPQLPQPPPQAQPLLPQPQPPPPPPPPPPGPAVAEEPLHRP
T2 sequence (P42858 with tags, fused parts or gaps limits assumed, stated change not applied): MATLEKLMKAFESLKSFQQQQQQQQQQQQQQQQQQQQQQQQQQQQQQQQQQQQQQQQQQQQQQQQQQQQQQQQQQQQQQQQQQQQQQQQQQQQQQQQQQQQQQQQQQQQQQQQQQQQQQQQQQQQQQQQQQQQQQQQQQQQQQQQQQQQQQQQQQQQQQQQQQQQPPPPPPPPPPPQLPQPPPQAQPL

reduction of TGase activity [1]: at least 60%
Compound: Nc1nc2c(ncn2[C@@H]2O[C@H](COP(=O)(O)OP(=O)(O)OP(O)(O)=S)[C@@H](O)[C@H]2O)c(=O)[nH]1 [GTPγS]

amount of CaM-bound htt-exon1-44Q ([2]; 664 μM W-5 along with 10 μM of CaM-peptide): significantly increased
Compound: Cl.NCCCCCCNS(=O)(=O)c1cccc2ccccc12 [W-5, N-(6-Aminohexyl)-1-naphthalenesulfonamide hydrochloride]
amount of CaM-bound htt-exon1-44Q ([2]; W-5 alone): did not affect the amount of CaM-bound htt-exonl-44Q

Compound: NCCSSCCN [cystamine]
survival [3]: increase survival | cell survival [4]: increased cell survival | cross-linking of huntingtin [4]: decreased the cross-linking of huntingtin

Compound: CaM-N-term: calmodulin fragment: first 76 amino acids, contains the first two Ca2+ binding sites
TG-modified huntingtin compared to control cells (in words) [5]: no significant decrease in TG-modified huntingtin, but rather an increase; also recorded: did not reduce the TG-catalyzed modifications of huntingtin

Compound: GDTVEREKDAYNSLEGFDNTIHTLRADIGMVEEVAKSKRDEEFLE [scram-CaM-peptide]
total TG activity in situ between infections [6]: no significant difference in total TG activity
